Laboratory results published in US20230414638A1, “S[…] COMPOUNDS AS AMPK ACTIVATOR AND USES THEREOF” (SOCIETE DES PRODUITS NESTLE S.A., priority 2020, published 2023).
Entries after “also recorded” stand apart in the source; their conditions may differ.

Experiments:
AMPK = test: pACC HTRF assay (Cisbio) in U-2 OS Flp-In T-REx cells; type: cell-based; conditions: varying concentrations, 30 mins at 37 C
Experimental: U-2 OS Flp-In T-REx cells were seeded at 50 K in a 96-well plate and left overnight at 37 C in DMEM GlutaMAX (Thermo Fisher Scientific) supplemented with 10% (vol/vol) FBS and 100 U/ml penicillin G, and 100 μg/ml streptomycin. Cells were treated for 30 mins with varying concentrations of Compound 1 in media lacking FBS and then cells were lysed in 50 μl of Cisbio lysis buffer #1 supplemented with blocking solution as per the manufacturer's protocol (Cisbio). Compound 1 is 2,4-dihydroxy-3-[(1R,6R)-3-methyl-6-prop-1-en-2-ylcyclohex-2-en-1-yl]-6-pentylbenzoic acid, also known as Cannabidiolic acid, CAS number: 1244-58-2.
Cells were lysed for 30 mins at room temperature before 16 μl of lysate was incubated with 4 μl of the HTRF antibodies (1:40 dilution of the acceptor and donor (p)ACC antibodies, as per the manufacturers protocol). Lysates were incubated overnight with the antibodies before 665 nm/620 nm ratio was determined using a MolecularDevices i3 plate reader (with a HTRF cartridge add-on).

AMPK β1 WT = test: pACC HTRF assay in AMPKβ1/β2 double knockout U-2 OS cells stably expressing β1 WT; type: cell-based, human; conditions: AMPKβ1β2 double knockout cells stably expressing β1 WT, varying concentrations, 30 mins at 37 C
Excerpt: (§1) A MPKβ1/β2 double knockout U-2 OS Flp-In™ T-Rex™ cell lines were generated by Horizon Discovery (Cambridge, UK). Cells were genotyped and analysed by western blotting to confirm that there was a complete knockout of AMPKβ1/β2. We took these AMPKβ1/β2 double knockout cells, and re-introduced the expression of human β1 wild-type (WT) or a β1 Serine 108 to alanine mutation (S108A). This was achieved using the Flp-In™ system (Invitrogen) present in this cell line and stable cells expressing β1 WT or a β1 S108A mutant were generated according to the manufacturers' protocols. Re-expression of the β1 subunit was confirmed by western blot analysis.
(§2) Cells stably expressing β1 WT or a β1 S108A mutant were treated with varying concentrations of Compound 1 and subjected to the pACC HTRF (Cisbio) assay to determine the level of phosphorylation of the AMPK substrate, ACC, in cell lysates, as in example 1.
We took AMPKβ1/β2 double knockout cells, and re-introduced the expression of human […] or β2 WT isoforms. […] Cells stably expressing β1 WT or β2 were treated with varying concentrations of compound 1 and subjected to the pACC HTRF (Cisbio) assay to determine the level of phosphorylation of the AMPK substrate, ACC, in cell lysates, as in example 1. […]

[1] = system: ADaM-binding site AMPK mutant (β1 S108A); test: pACC HTRF assay in AMPKβ1/β2 double knockout U-2 OS cells stably expressing β1 S108A mutant; type: cell-based, human; conditions: AMPKβ1β2 double knockout cells stably expressing β1 S108A mutant, varying concentrations, 30 mins at 37 C
Excerpt: as §1, §2

[2] = system: β2-containing AMPK complexes; test: pACC HTRF assay in AMPKβ1/β2 double knockout U-2 OS cells stably expressing β2 WT; type: cell-based, human; conditions: AMPKβ1β2 double knockout cells stably expressing β2 WT, varying concentrations, 30 mins at 37 C
Experimental: We took AMPKβ1/β2 double knockout cells, and re-introduced the expression of human […] or β2 WT isoforms. […] Cells stably expressing β1 WT or β2 were treated with varying concentrations of compound 1 and subjected to the pACC HTRF (Cisbio) assay to determine the level of phosphorylation of the AMPK substrate, ACC, in cell lysates, as in example 1. […] This activation profile is characteristic of activators that bind to the ADaM site and consistent with previous studies showing that ADaM-site activators have poorer activation of β2-containing complexes in vitro and in cells.

[3] = system: primary mouse hepatocytes; test: Lipogenesis ([1-14C]-acetate incorporation into fatty acids) in primary hepatocytes; type: cell-based; conditions: varying concentrations, 1 h at 37 C
Experimental: Hepatocyte isolation: The liver was first perfused with 50 ml perfusion buffer (Krebs-Hepes buffer with […] EDTA), followed with 50 ml collagenase A buffer (Krebs-Hepes buffer with 5 mM CaCl2) and 0.5 mg/ml collagenase). After passage through a 100 μm mesh, the cell solution was washed several times with cold media and finally the cell culture pellet was resuspended in culture medium (medium 199 (M199)+GlutaMAX, 100 U/ml penicillin G, and 100 μg/ml streptomycin, 0.1% (wt/vol) BSA, 10% FCS, 10 nM insulin, 200 nM triiodothyronine and 500 nM dexamethasone). Hepatocytes were left to attach (3-4 h) and cultured overnight in M199 supplemented with antibiotics and 100 nM dexamethasone. Cells were used for experiments the following morning.
For lipogenesis measurements in primary hepatocytes, cells were seeded at 600 K cells per well in a 6-well plate overnight. Media was replaced with fresh M199 media alone for 2 hours prior to incubation with varying concentrations of compound 1 for 1 h at 37 C, in the presence of [1-14C]-acetate. The incorporation of [14C] into fatty acids was determined in the lower organic layer after separation from the aqueous phase.

In the case of `C=C(C)[C@@H]1CCC(C)=C[C@H]1c1c(O)cc(CCCCC)c(C(=O)O)c1O` [Compound 1, 2,4-dihydroxy-3-[(1R,6R)-3-methyl-6-prop-1-en-2-ylcyclohex-2-en-1-yl]-6-pentylbenzoic acid], the “Phosphorylation of ACC (fold increase in activation)” value (AMPK) is reported as “increased the phosphorylation of the AMPK substrate, acetyl-CoA carboxylase (ACC); also recorded: increases the phosphorylation of the AMPK substrate, ACC, in a dose-dependent manner”, the “Phosphorylation of ACC (fold increase in activation)” value (AMPK β1 WT) is reported as “able to dose-dependently increase pACC” and the “Phosphorylation of ACC (fold increase in activation)” value [1] is reported as “did not activate AMPK; also recorded: not able to increase pACC”. For the same molecule, the “Phosphorylation of ACC (fold increase in activation)” value [2] was “impaired activation of AMPK; also recorded: impaired ability of compound 1 to increase pACC” and the “Lipogenesis (percentage compared to the no treatment control)” value [3] was “dose-dependent inhibition of lipogenesis; also recorded: able to inhibit lipogenesis in a dose-dependent manner”.
